{"source": "patent US11707440B2", "about": "(priority 2017, dated 2023)", "key": {"[1]": {"details": "for Stock solution stability: stock solutions", "from_the_text": "This example provides an LC-MS/MS method for the determination of ketamine and norketamine in sodium heparin human plasma using ketamine-d4 and norketamine-d4 as the respective internal standards (IS)."}, "[2]": {"test": "Pharmacokinetics of intranasal esketamine in healthy subjects (Example 9)", "details": "for Metabolite/Parent Ratio AUClast / Metabolite/Parent Ratio AUC∞ / Metabolite/Parent Ratio tmax / AUClast / AUC∞ / Cmax / t1/2: mean; for tmax: median", "procedure": "Pharmacokinetic blood samples for measurement of esketamine and noresketamine concentrations in plasma were collected from predose until up to 24 hours after each intranasal esketamine regimen on Day 1 of each period.\nBlood samples (4 mL each) for determination of esketamine and noresketamine plasma concentrations were collected into the appropriate collection tube (e.g., Vacutainer®) at timepoints 0.00, 0.12, 0.20, 0.37, 0.53, 0.67, 0.83, 1.00, 1.25, 1.50, 2.00, 3.00, 4.00, 6.00, 9.00, 12.00, 18.00, and 24.00 h. The total amount of blood to be drawn for clinical laboratory tests and PK evaluations is approximately 327 mL.\nPlasma samples were analyzed for esketamine and noresketamine concentrations using the validated, specific and sensitive liquid chromatography coupled to tandem mass spectrometry (LC-MS/MS) achiral method of Example 8.\nSerial PK blood samples (4 mL each) were collected for a 24-hour period from each subject (Periods 1, 2, and 3). […] Statistical Methods 1.6.4.1. Sample Size\nThe following key parameters of esketamine and noresketamine in plasma were calculated using noncompartmental methods and actual sampling times: Cmax, tmax, AUClast, AUC∞, t1/2,λ, and λz."}, "MDD/TRD subjects": {"system": "MDD/TRD subjects", "details": "52-week safety study in MDD/TRD subjects (Berman et al., 2011); cited from earlier work"}, "[3]": {"details": "after A: Esketamine 28 mg intranasal"}, "[4]": {"details": "after B: Esketamine 56 mg intranasal"}, "[5]": {"details": "after C: Esketamine 84 mg intranasal"}, "[6]": {"details": "healthy subjects, 28, 56 and 84 mg"}, "[7]": {"details": "metabolite after A: Esketamine 28 mg intranasal"}, "[8]": {"details": "metabolite after B: Esketamine 56 mg intranasal"}, "[9]": {"details": "metabolite after C: Esketamine 84 mg intranasal"}}, "note": "Where two headings read alike, the source gives them in different places. Marks after values point to notes of the source that are not given here.", "data": [{"molecule": "CN[C@]1(c2ccccc2Cl)CCCCC1=O", "note": "[5-Ketamine]", "values": [{"measurement": "QC sample long-term storage stability", "setting": "[1]; human plasma, −20° C.", "result": 707, "unit": "days at −20 °C"}]}, {"molecule": "NC1(c2ccccc2Cl)CCCCC1=O", "note": "(stereo not drawn) [Norketamine]", "values": [{"measurement": "QC sample freeze/thaw stability", "setting": "[1]; freeze (−20° C.)/thaw (ice-water bath)", "result": "3 freeze (−20° C.)/thaw (ice-water bath) cycles"}, {"measurement": "QC sample freeze/thaw stability", "setting": "[1]; freeze (−20° C.)/thaw (room temperature)", "result": "3 freeze (−20° C.)/thaw (room temperature) cycles"}, {"measurement": "QC sample bench-top stability", "setting": "[1]; human plasma, room temperature", "result": 68.5, "unit": "hours at room temp"}, {"measurement": "QC sample long-term storage stability", "setting": "[1]; human plasma, −20° C.", "result": 1552, "unit": "days at −20 °C"}, {"measurement": "Processed sample stability", "setting": "[1]; room temperature", "result": 146.5, "unit": "hours at room temperature"}, {"measurement": "Whole Blood Stability", "setting": "[1]; room temperature and ice-water bath (0-4° C.)", "result": "120 minutes at room temperature and in an ice-water bath"}, {"measurement": "Stock solution stability (spike solutions)", "setting": "[1]; spike solutions, −20° C.", "result": "610 days at −20 °C for ketamine/norketamine spike solutions"}, {"measurement": "Stock solution stability", "setting": "[1]; room temperature under white light", "result": 6, "unit": "h"}, {"measurement": "Stock solution stability", "setting": "[1]; −20° C.", "result": 15100, "unit": "h"}]}, {"molecule": "N[C@]1(c2ccccc2Cl)CCCCC1=O", "note": "[noresketamine]", "values": [{"measurement": "Metabolite/Parent Ratio AUClast", "setting": "[2]; [3]", "result": 3.62}, {"measurement": "Metabolite/Parent Ratio AUC∞", "setting": "[2]; [3]", "result": "3.80^b"}, {"measurement": "Metabolite/Parent Ratio tmax", "setting": "[2]; [3]", "result": 1.96, "unit": "h"}, {"measurement": "Metabolite/Parent Ratio AUClast", "setting": "[2]; [4]", "result": 4.07}, {"measurement": "Metabolite/Parent Ratio AUC∞", "setting": "[2]; [4]", "result": "4.22^b"}, {"measurement": "Metabolite/Parent Ratio tmax", "setting": "[2]; [4]", "result": 2.28, "unit": "h"}, {"measurement": "Metabolite/Parent Ratio AUClast", "setting": "[2]; [5]", "result": 4.32}, {"measurement": "Metabolite/Parent Ratio AUC∞", "setting": "[2]; [5]", "result": "4.46^d"}, {"measurement": "Metabolite/Parent Ratio tmax", "setting": "[2]; [5]", "result": 2.55, "unit": "h"}, {"measurement": "AUC (AUClast and AUC∞) variability, range", "setting": "[2]; [6]", "result": "17.0% to 21.3"}, {"measurement": "AUClast, mean ratio of noresketamine to esketamine, range", "setting": "[2]; [6]", "result": "3.62 to 4.32"}, {"measurement": "AUC∞, mean ratio of noresketamine to esketamine, range", "setting": "[2]; [6]", "result": "3.80 to 4.46"}, {"measurement": "Cmax variability (percent coefficient of variation), range across treatment groups", "setting": "[2]; [6]", "result": "25.8% to 33.7"}, {"measurement": "Cmax, mean ratio of noresketamine to esketamine, range", "setting": "[2]; [6]", "result": "1.96 to 2.55"}, {"measurement": "Mean t1/2, range", "setting": "[2]; [6]", "result": "7.48 to 7.74", "unit": "h"}, {"measurement": "Median tmax, range across the 3 intranasal regimens", "setting": "[2]; healthy subjects, 28, 56 and 84 mg intranasal esketamine", "result": "1.25 to 1.5", "unit": "h"}, {"measurement": "AUClast", "setting": "[2]; [7]", "result": 454, "unit": "ng·h/mL"}, {"measurement": "AUC∞", "setting": "[2]; [7]", "result": "508^ h * ng/mL"}, {"measurement": "Cmax", "setting": "[2]; [7]", "result": 92.8, "unit": "ng/mL"}, {"measurement": "t1/2", "setting": "[2]; [7]", "result": 7.74, "unit": "h"}, {"measurement": "tmax", "setting": "[2]; [7]", "result": 1.25, "unit": "h"}, {"measurement": "AUClast", "setting": "[2]; [8]", "result": 851, "unit": "ng·h/mL"}, {"measurement": "AUC∞", "setting": "[2]; [8]", "result": "924^c h * ng/mL"}, {"measurement": "Cmax", "setting": "[2]; [8]", "result": 154, "unit": "ng/mL"}, {"measurement": "t1/2", "setting": "[2]; [8]", "result": "7.71^c h"}, {"measurement": "tmax", "setting": "[2]; [8]", "result": 1.50, "unit": "h"}, {"measurement": "AUClast", "setting": "[2]; [9]", "result": 1287, "unit": "ng·h/mL"}, {"measurement": "AUC∞", "setting": "[2]; [9]", "result": "1392^b h * ng/mL"}, {"measurement": "Cmax", "setting": "[2]; [9]", "result": 241, "unit": "ng/mL"}, {"measurement": "t1/2", "setting": "[2]; [9]", "result": "7.48^b h"}, {"measurement": "tmax", "setting": "[2]; [9]", "result": 1.50, "unit": "h"}]}, {"molecule": "OCCOCCN1CCN(C2=Nc3ccccc3Sc3ccccc32)CC1", "note": "[quetiapine]", "values": [{"measurement": "Discontinuation rate due to adverse events", "setting": "MDD/TRD subjects", "result": 23.7, "unit": "%"}]}]}
